Measurements taken from patent publication US7915402B2, “Antioxidant inflammation modulators: oleanolic acid derivatives with saturation in the C-ring” (Reata Pharmaceuticals, Inc., priority 2008, dated 2011).
Read-outs that look alike come from different tables or passages of the source.

Experiments:
Ferritin heavy chain = assay: Induction of ferritin heavy chain mRNA (qPCR); format: cell-based, human; conditions: MDA-MB-435 cells, 16 hours
Procedure: (§1) FIG. 24. Induction of Ferritin Heavy Chain. MDA-MB-435 human melanoma cells were treated with vehicle (DMSO) or the indicated compounds and concentrations for 16 hours. Ferritin heavy chain mRNA levels were quantified using qPCR and were normalized relative to a DMSO-treated sample run in parallel. Values are averages of duplicate wells.
(§2) Nrf2 target gene induction. MDA-MB-435 human melanoma cells were treated with vehicle (DMSO) or the indicated compounds and concentrations for 16 hours. HO-1, thioredoxin reductase-1 (TrxR1), γ-glutamylcysteine synthetase (γ-GCS), and ferritin heavy chain mRNA levels were quantified using qPCR and were normalized relative to a DMSO-treated sample run in parallel. Values are averages of duplicate wells. Primer sequences are as follows.

mice = conditions: sesame oil, N=4
Sprague-Dawley rats = conditions: Sprague-Dawley rats, 1,500 mg/m^2/day for 14 days
[1] = tested on: γ-glutamylcysteine synthetase (γ-GCS); assay: Nrf2 target gene induction, γ-GCS mRNA (qPCR); format: cell-based, human; conditions: MDA-MB-435 cells
Procedure: as §1, with “21.” for “24.”, “HO-1, TrxR1 and γ-GCS.” for “Ferritin Heavy Chain.”, “HO-1, thioredoxin reductase-1 (TrxR1), and γ-glutamylcysteine synthetase (γ-GCS)” for “Ferritin heavy chain”
as §1, with “23.” for “24.”, “γ-GCS.” for “Ferritin Heavy Chain.”, “γ-glutamylcysteine synthetase (γ-GCS)” for “Ferritin heavy chain”
as §2

[2] = tested on: thioredoxin reductase-1 (TrxR1); assay: Nrf2 target gene induction, TrxR1 mRNA (qPCR); format: cell-based, human; conditions: MDA-MB-435 cells
Procedure: as §1, with “21.” for “24.”, “HO-1, TrxR1 and γ-GCS.” for “Ferritin Heavy Chain.”, “HO-1, thioredoxin reductase-1 (TrxR1), and γ-glutamylcysteine synthetase (γ-GCS)” for “Ferritin heavy chain”
as §1, with “22.” for “24.”, “TrxR1.” for “Ferritin Heavy Chain.”, “Thioredoxin reductase-1 (TrxR1)” for “Ferritin heavy chain”, “wells. Compounds 401, 402-19 and 402-53 are comparison compounds (see Example 1).” for “wells.”
as §2

NQO1 = assay: Nrf2 target gene induction, NQO1; format: cell-based, human; conditions: MDA-MB-435 cells, 250 nM; fold induction above DMSO control
RAW264.7 macrophages = assay: Cell viability, WST-1 reagent; format: cell-based, mouse; conditions: Mus musculus, RAW264.7 (20 ng/ml IFNγ)
Procedure: (§3) FIGS. 1-8 and 32-34. Inhibition of NO Production. RAW264.7 macrophages were pre-treated with DMSO or drugs at various concentrations (nM) for 2 hours, then treated with 20 ng/ml IFNγ for 24 hours. NO concentration in media was determined using a Griess reagent system; cell viability was determined using WST-1 reagent.
(§4) Nitric Oxide production and cell viability. RAW264.7 macrophages were pre-treated with DMSO or drugs for 2 hours, then treated with recombinant mouse IFNγ (Sigma) for 24 hours. NO concentration in media was determined using the Griess reagent system (Promega). Cell viability was determined using WST-1 reagent (Roche).

iNOS = iNOS suppression, Western blot; format: cell-based, mouse; conditions: RAW264.7 (20 ng/ml IFNγ)
HO-1 = assay: Nrf2 target gene induction, HO-1 mRNA (qPCR); format: cell-based, human; conditions: MDA-MB-435 cells
Procedure: as §1, with “FIGS. 17-20.” for “FIG. 24.”, “HO-1.” for “Ferritin Heavy Chain.”, “HO-1” for “Ferritin heavy chain”
as §1, with “21.” for “24.”, “HO-1, TrxR1 and γ-GCS.” for “Ferritin Heavy Chain.”, “HO-1, thioredoxin reductase-1 (TrxR1), and γ-glutamylcysteine synthetase (γ-GCS)” for “Ferritin heavy chain”
as §2

[3] = tested on: IFNγ-induced NO production in RAW264.7 macrophages; assay: Suppression of IFNγ-induced NO production (Griess reagent); format: cell-based, mouse; conditions: Mus musculus; RAW264.7, 20 ng/ml IFNγ 24 h, 2 h pre-treatment
Procedure: as §3, §4

[4] = 250 nM, fold induction above DMSO control
[5] = 400 nM, percent of induction observed for 402

Structure (SMILES): COC(=O)[C@]12CCC(C)(C)C[C@H]1[C@H]1C(=O)CC3[C@@]4(C)C=C(C#N)C(=O)C(C)(C)[C@@H]4CC[C@@]3(C)[C@]1(C)CC2 (stereo partly drawn) [Compound 63101, (4aS,6aR,6bR,8aR,12aR,14aR,14bS)-methyl 11-cyano-2,2,6a,6b,9,9,12a-heptamethyl-10,14-dioxo-1,2,3,4,4a,5,6,6a,6b,7,8,8a,9,10,12a,12b,13,14,14a,14b-icosahydropicene-4a-carboxylate]
- Ferritin heavy chain mRNA induction: concentration needed compared with unsaturated counterpart (402, 404) (Ferritin heavy chain): higher concentrations
- Number of Deaths (mice; oral gavage QDx14, 10 mg/kg): 0
- Number of Deaths (mice; oral gavage QDx14, 50 mg/kg): 0
- Number of Deaths (mice; oral gavage QDx14, 100 mg/kg): 0
- Number of Deaths (mice; oral gavage QDx14, 250 mg/kg): 0
- highest dose without significant toxicity relative to the MTD of RTA 402 in this species (Sprague-Dawley rats): 50 fold
- γ-GCS induction [1, 4]: 5 fold
- γ-GCS induction [1, 5]: 53%
- γ-GCS mRNA induction: concentration needed compared with unsaturated counterpart (402, 404) ([1]; 16 hours): higher concentrations
- TrxR1 induction [2, 5]: 47%
- TrxR1 mRNA induction: concentration needed compared with unsaturated counterpart (402, 404) ([2]; 16 hours): higher concentrations
- NQO1 induction (NQO1): 2 fold
- IC50 (RAW264.7 macrophages): 200 nM
- iNOS suppr. WB (iNOS): >90%
- HO-1 induction (HO-1; [4]): 3 fold
- HO-1 induction (HO-1; [5]): 4%
- IC50 [3]: ~12 nM
